Structures are written as SMILES. Records with an inconclusive call do not appear. Activity calls are given as the source filed them. No rule for the calls is given here.

The test system of the data set is S. typhimurium/E. coli reverse mutation, colony counts. The data set is described as follows: Bacterial reverse mutation test (aka Ames test) summary data.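 Also: His-minus Salmonella and trp-minus E. coli WP2 uvrA pKM101 with or without liver S9.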 The source says:
The Ames test uses bacteria cultures to determine whether a substance causes mutations. Because there is a significant overlap between substances that are mutagens and those that are carcinogens, a quick and inexpensive mutagenicity test is useful as an initial screening for possible carcinogens.
The Ames test relies on specific strains of S. typhimurium, namely: TA97, TA98, TA100, TA102, TA104, TA1535, TA1537, and TA1538. In addition to the S. typhimurium strains, the test may also use the E. coli strain WP2 uvrA pKM101.
Each of the bacterial strains has a mutation that prevents it from making an amino acid (a protein building block) required for normal cell growth. The S. typhimurium strains are unable to manufacture histidine; the E. coli strain cannot manufacture tryptophan. The tester strains will not be able to grow without amino acid supplementation, unless the mutated gene is changed back to the correct DNA sequence (reversion mutation). Being exposed to a mutagenic chemical increases the chance that the mutant gene will be restored to the correct sequence, which allows the bacteria to grow and form colonies. Each substance under study is tested in a variety of bacterial strains with different types of altered DNA sequences in order to provide a comprehensive assessment of the mutagenic potential of the substance.
Some non-mutagenic substances are converted to mutagenic substances when metabolized by the liver; in contrast, some substances that are mutagenic in their natural state are converted to non-mutagens by the liver. All substances are tested in their natural state, as well as in the presence of liver enzymes that can produce this metabolic conversion of the test substance. Extracts of rat, hamster, or mouse liver enzymes (S9 mix) are used for this purpose.
D. Preparing the Cultures
Multiple sets of cultures are prepared using a range of doses and different amounts of liver enzymes for each bacterial strain. Each culture is prepared in a test tube containing a suspension of one bacterial strain and either an S9 mix or plain buffer solution. Then the test substance is added. Negative control cultures are established using the same ingredients, but without the test substance. Positive control cultures are established using known mutagens active in particular bacterial strains and metabolic conditions (for example, with or without S9). Once prepared, each culture is incubated for 20 minutes at 37° C. Agar is then added to the cultures, and the contents of each tube are poured onto the surface of a Petri dish that was prepared with standard bacterial culture medium. The plates are then incubated, usually for two days.
Depending on the substance to be tested, the exposure and incubation processes may be modified. These variations include:
- Elimination of the 20-minute incubation period in a test tube prior to plating (this method is referred to as the standard plate incorporation method)
- Enzymatic reduction of azo and diazo substances (this process occurs in the intestine or liver of animals) using a chemical called flavin mononucleotide (FMN) or intestinal bacterial preparations from rats
- Testing in sealed chambers such as desiccators for volatile and gaseous chemicals.
To validate the test, a trained investigator compares the number of colonies on the chemical-treated plates to the number of colonies on the negative control plates. If the substance under test is mutagenic, the chemical-treated plates will have a much greater number of colonies than the negative control plates.
- A positive response is a reproducible, dose-related increase in mutant colonies in any single strain, with or without the addition of S9 metabolic enzymes. While there is no minimum percentage of increase required for a result to be considered positive, a twofold increase in mutant colonies in a treated plate is usually considered to be a positive (mutagenic) response.
[…]
A general note: The Ames test detects mutagens through reverse mutation in bacteria.
`O=C=Nc1ccc(N=C=O)cc1`: the outcome is “inactive; negative”. Take `O=C1NC(=O)C(c2ccccc2)(c2ccccc2)N1`: the outcome was “inactive; negative”.

In the case of `COc1cc([C@H]2Oc3cc([C@H]4Oc5cc(O)cc(O)c5C(=O)[C@@H]4O)ccc3O[C@@H]2CO)ccc1O`, the outcome is “inactive; negative”. In the case of `NC(=O)c1cccnc1`, the outcome is “inactive; negative”. Regarding `N#CC(Br)Br`, the outcome was “active; positive”. Consider `CCC(C)=NO`, for which the outcome is “active; positive”. For the compound `OC(O)C(Cl)(Cl)Cl`, the outcome is “active; positive”. Turning to `CC(C)COC(=O)COc1cc(Cl)c(Cl)cc1Cl`, the outcome was “inactive; negative”. Turning to `CC=CC=O`, the outcome is “active; positive”.

For the compound `C=CC(=O)OCC1CO1` (stereo unspecified), the outcome was “active; positive”.

Regarding `C=C1C/C(=C/C)C(=O)O[C@@H]2CCN3CC=C(COC(=O)[C@@]1(O)CO)[C@H]23`, the outcome is “active; positive”. Regarding `C1COCCN1`, the outcome is “inactive; negative”. Then `O=C1NC2NC(=O)NC2N1` (stereo unspecified), with “inactive; negative”; and `COc1cccc(N)c1`, with “active; positive”. On to `C[C@H]1CCC[C@H](O)CCCCCc2cc(O)cc(O)c2C(=O)O1`, for which the outcome was “inactive; negative”. In the case of `CCCN(CCC)S(=O)(=O)c1ccc(C(=O)O)cc1`, the outcome is “inactive; negative”. Take `CC(C)=CCCC(C)=CC=O`: the outcome is “inactive; negative”.

Take `COCC1CO1` (stereo unspecified): the outcome is “active; positive”. Then `c1ccc2ncccc2c1`, with “active; positive”. `COC(=O)CCC(=O)OC`: the outcome is “inactive; negative”. For the compound `CCCCOCC1CO1` (stereo unspecified), the outcome was “active; positive”. Take `Cc1cccc(N)c1`: the outcome is “inactive; negative”.

On to `Cc1c(C(=O)O)cccc1[N+](=O)[O-]`, for which the outcome was “active; positive”. Consider `COc1cc(-c2ccc(N=C=O)c(OC)c2)ccc1N=C=O`, for which the outcome was “active; positive”. Consider `O=C1CCC(=O)O1`, for which the outcome was “inactive; negative”. On to `Oc1ccc(O)cc1`, for which the outcome is “inactive; negative”.

On to `ClCC(Br)CBr` (stereo unspecified), for which the outcome was “active; positive”. On to `CCN(N=O)C(N)=O`, for which the outcome was “active; positive”. For `O=C(O)CNC(=O)c1ccc([N+](=O)[O-])cc1`, the outcome was “active; positive”.

In the case of `CNc1ccc(O)cc1`, the outcome is “active; positive”. Then `C1CCCC1`, with “inactive; negative”; and `CCCCOC(=O)c1ccccc1N`, with “inactive; negative”; and `CCCCCCCCCCCCOCC1CO1` (stereo unspecified), with “inactive; negative”.

`COc1cc2c(c(OC)c1OC)-c1ccc(OC)c(=O)cc1[C@@H](NC(C)=O)CC2`: the outcome is “inactive; negative”.

For `O=C1c2cccc(O)c2C(=O)c2c(O)cccc21`, the outcome was “active; weakly positive”.

With `Cc1ccc(OCC2CO2)cc1` (stereo unspecified), the outcome is “active; positive”. For the compound `C[C@H](CCC(=O)O)[C@H]1CC[C@H]2[C@@H]3CC[C@@H]4C[C@H](O)CC[C@]4(C)[C@H]3CC[C@]12C`, the outcome is “inactive; negative”. Consider `C1OCOCO1`, for which the outcome was “inactive; negative”. Turning to `CCCCCCCC(=O)Cl`, the outcome was “active; positive”. In the case of `CC(O)CN(C)C` (stereo unspecified), the outcome is “inactive; negative”. `C=CCc1ccc(O)c(OC)c1`: the outcome is “inactive; negative”.

Take `CCCCNC(=O)n1c(NC(=O)OC)nc2ccccc21`: the outcome is “inactive; negative”. With `Cc1ccc2c(c1N)C(=O)c1ccccc1C2=O`, the outcome is “active; positive”.

Take `Cc1cc(C)cc(N)c1`: the outcome was “active; weakly positive”. As to `Cc1cc(Cl)ccc1O`, the outcome is “inactive; negative”. For `OCC(CO)(CBr)CBr`, the outcome is “active; positive”. For `CC(C)CN`, the outcome is “inactive; negative”. Regarding `CC(N)=O`, the outcome was “inactive; negative”. For the compound `CC(CO)(CO)[N+](=O)[O-]`, the outcome is “inactive; negative”.

Turning to `CCCCCCCC/C=C\CCCCCCCC(=O)O` (tested in a mixture with another compound), the outcome is “inactive; negative”. As to `COC(=O)CCCC(=O)OC`, the outcome was “inactive; negative”.

For `O=C(O)CCCC(=O)O`, the outcome is “inactive; negative”. As for `c1ccc2c(c1)c1cccc3ccc4cccc2c4c31`, the outcome is “active; positive”. Take `CCOc1ccc(N=Nc2ccc(-c3ccc(N=Nc4c(O)ccc5cc(S(=O)(=O)O)cc(S(=O)(=O)O)c45)c(C)c3)cc2C)cc1`: the outcome was “inactive; negative”.

Take `O=C1NC(=O)C(O)(O)C(=O)N1`: the outcome was “inactive; negative”.

`CCOC(C)OCC`: the outcome is “active; positive”.

For the compound `CCCCCCCC(=O)O`, the outcome is “inactive; negative”.

In the case of `NC(N)=NC(=O)c1nc(Cl)c(N)nc1N`, the outcome is “active; positive”. Take `FC(F)(F)c1cccc(Cl)c1`: the outcome is “inactive; negative”. As for `CCCCCCc1ccc(-c2ccc(C#N)cc2)cc1`, the entry is “inactive; negative”. As to `Cc1cn([C@H]2C=C[C@@H](CO)O2)c(=O)[nH]c1=O`, the outcome is “active; weakly positive”. Turning to `CCCCC(CC)COC(=O)C(C#N)=C(c1ccccc1)c1ccccc1` (stereo unspecified), the outcome is “inactive; negative”. Regarding `O=[N+]([O-])c1cccc(O)c1`, the outcome is “active; weakly positive”. `CCC=C1OC(=O)c2ccccc21`: the outcome was “active; positive”. For the compound `[CH3][Sn]([CH3])([F])[F]`, the outcome is “inactive; negative”. As for `CCCl`, the outcome is “active; positive”.

Regarding `CCN(CC)c1ccc(N=O)c(O)c1`, the outcome is “inactive; negative”.

With `Cc1cscn1`, the outcome is “inactive; negative”. On to `CCCC(=O)O`, for which the outcome is “inactive; negative”.

On to `C[C@@H]1Cc2c(Cl)cc(C(=O)N[C@@H](Cc3ccccc3)C(=O)O)c(O)c2C(=O)O1`, for which the outcome was “inactive; negative”.

Take `O=C1OC2(c3ccc(O)cc3Oc3cc(O)ccc32)c2ccccc21`: the outcome was “inactive; negative”.

As to `Cc1cccc(C)c1[N+](=O)[O-]`, the outcome is “active; weakly positive”.

Turning to `O=[N+]([O-])c1ccc2c(c1)Cc1cccc([N+](=O)[O-])c1-2`, the outcome was “active; positive”.

`CC(=O)OCC(COC(C)=O)OC(C)=O`: the outcome is “inactive; negative”. For `O=C(O)CC(O)(CC(=O)OO)C(=O)O` (stereo unspecified), the outcome is “inactive; negative”. With `CN(C)C(=S)[S-].CN(C)C(=S)[S-].[Pb+2]`, the outcome is “active; positive”. Then `CCN(CC)c1ccc(N)cc1`, with “active; positive”. `CC1OC1C` (stereo unspecified): the outcome was “active; positive”. `CNc1ccccc1N`: the outcome was “active; positive”. As for `CCOP(=S)(OCC)Oc1cc(C)nc(C(C)C)n1`, the entry is “inactive; negative”; as for `Cc1cccc([N+](=O)[O-])c1N`, “active; positive”. `CC(=O)OCCC(C)C`: the outcome is “inactive; negative”.

As for `C=C(C#N)C(=O)OC`, the outcome was “active; positive”. Consider `c1ccc2c(c1)-c1cccc3c1c-2cc1ccccc13`, for which the outcome was “active; positive”. `C=CC(C)=O`: the outcome is “active; positive”. As to `S=C=Nc1cccc2ccccc12`, the outcome was “active; positive”.

Regarding `Nc1ccc(NCCO)c([N+](=O)[O-])c1`, the outcome was “active; positive”. Turning to `Cc1ccc(O)c(N)c1`, the outcome is “active; positive”. On to `O=C1OC(=O)c2cc([N+](=O)[O-])ccc21`, for which the outcome is “active; positive”. Regarding `CC/C=C\C/C=C\C/C=C\CCCCCCCC(=O)OCC`, the outcome is “active; weakly positive”. Regarding `CCOC(=O)OCC`, the outcome is “inactive; negative”.

(Values after PubChem BioAssay AID2202554 (NIEHS Division of Translational Toxicology (DTT)).)
